According to ChEMBL document CHEMBL1151990, “3-Alkylpyridinium alkaloids from the Pacific sponge Haliclona sp” (J Nat Prod, 2009):
In brackets after ≈: the same amount, converted by molar mass.

Assays:
WEHI-164 = assay: Cytotoxicity against mouse WEHI164 cells by rapid colorimetric assay; type: functional, cell-based
HEK293 = assay: Cytotoxicity against HEK293 cells by rapid colorimetric assay; type: cell-based; conditions: Homo sapiens
J774.A1 = assay: Cytotoxicity against mouse J774A1 cells by rapid colorimetric assay; type: cell-based

Compound `C1=C\Cc2ccc[n+](c2)CCCCCCCC/C=C\Cc2ccc[n+](c2)CCCCCCCC/C=C\Cc2ccc[n+](c2)CCCCCCCC/1` has an IC50 (WEHI-164) greater than 20 µg/mL, an IC50 (HEK293) greater than 20 µg/mL and an IC50 (J774.A1) greater than 20 µg/mL.
`C1=C\Cc2ccc[n+](c2)CCCCCCCC/C=C\Cc2ccc[n+](c2)CCCCCCCC/1` showed an IC50 (WEHI-164) greater than 20 µg/mL, an IC50 (HEK293) greater than 20 µg/mL and an IC50 (J774.A1) greater than 20 µg/mL.
`Sc1ncnc2nc[nH]c12` [MERCAPTOPURINE ANHYDROUS] gave an IC50 (WEHI-164) of 0.0025 µg/mL (≈ 0.0164 µM), an IC50 (HEK293) of 0.00071 µg/mL (≈ 0.00467 µM) and an IC50 (J774.A1) of 0.0051 µg/mL (≈ 0.0335 µM).
